Patent US20240024403A1, “Compositions and Methods for Managing Weight” (Unigen, Inc., priority 2012, published 2024)

Test: High fat diet induced obesity (DIO) mouse model
Format: in vivo, C57CL/6J mice
Design: Epididymal Fat weight / Retroperitoneal Fat weight / Total Fat (sum of the three fat deposits) / Retroperitoneal Fat / Total Fat / Epididymal Fat, absolute weight / Retroperitoneal Fat, absolute weight: unit not given here
Settings: for Weight (total body weight) / Total Weight: in g (unit assumed)
Protocol: C57CL/6J mice aged 4-6 weeks (Korea Research Institute of Bioscience & Biotechnology, Ohchang, Korea) were housed in Polycarbonate cages (five mice per cage) in a room with a 12 hr:12 hr light-dark cycle and an ambient temperature of 24° C. All the mice were fed a commercial chow diet for 1 week after arrival in the animal facility. Mice were then divided into normal and obesity groups and fed with normal diet (ND) and high fat diets (HFD) respectively. The HFD group was divided into multiple treatment groups: a high fat diet vehicle group (HFD), an orlistat (purchased as OTC drug Alli®) positive control treatment group (ORI, 40 mg/kg of animal weight, 2 times/day) and optionally a sibutramine positive control treatment group (10 mg/kg, 1 time/day). The HFD contained 340 g of fat/kg of HFD (310 g lard plus 30 g soybean oil; Harlan Laboratories, USA). The HFD was formulated to provide 60% of the total energy generated by the diet from fat by replacing carbohydrate energy with lard and soybean oil, whereas the normal diet (ND) group was fed a diet providing only 18% of the total diet energy from fat(Harlan Laboratories, USA).
Body weight was measured once each week and feed intake was measured twice per week. At the end of the experimental period, following a 12 hr. fasting period, the animals were anesthetized with ether, and blood was drawn from the abdominal vein. Liver and kidney and adipose tissues (epididymal, retroperitoneal, perirenal adipose tissues) were removed from each animal, rinsed with physiological saline, and weighed. Serum concentrations of glucose, total cholesterol, triglycerides, and LDL-cholesterol were determined using automatic analyzer (INTEGRA 400, Roche, Germany). Statistical significance of test results was measured using the Student's t-test.

[1] = DIO mice blood biochemistry, SIB 10 mg/kg, ORI 40 mg/kg, Mutamba extract 32 (G1) 1000 mg/kg, mean
[2] = DIO mice blood biochemistry, SIB 10 mg/kg, ORI 40 mg/kg, Mutamba extract 33-2 G1 1000 mg/kg, mean
[3] = DIO mice liver pathology score, SIB 10 mg/kg, ORI 40 mg/kg, Mutamba extract 32 (G1) 1000 mg/kg, mean
[4] = DIO mice, ORI 40 mg/kg, seven week study, mean
[5] = DIO mice, biochemistry parameters, G3, G4 1000 mg/kg oral two times per day
[6] = DIO mice, blood at end of study, ORI 40 mg/kg, mean
[7] = DIO mice, blood at end of study, ORI 40 mg/kg, G1 300 mg/kg (Morus:Magnolia 2:1)
[8] = DIO mice, blood at end of study, ORI 40 mg/kg, G1 1200 mg/kg (Morus:Yerba Mate 1:5)
[9] = DIO mice, liver pathology, ORI 40 mg/kg, mean
[10] = DIO mice, oral, seven weeks, combination (2:5) 700 mg/kg, ORI 40 mg/kg, group mean
[11] = DIO mice, oral, week 1, ORI 40 mg/kg, G1 700 mg/kg (Morus:Rosemary 2:5)
[12] = DIO mice, oral, week 1, ORI 40 mg/kg, G1 1200 mg/kg (Morus:Yerba Mate 1:5)
[13] = DIO mice, oral, week 2, ORI 40 mg/kg, G1 700 mg/kg (Morus:Rosemary 2:5)
[14] = DIO mice, oral, week 2, ORI 40 mg/kg, G1 1200 mg/kg (Morus:Yerba Mate 1:5)
[15] = DIO mice, oral, week 3, ORI 40 mg/kg, G1 700 mg/kg (Morus:Rosemary 2:5)
[16] = DIO mice, oral, week 3, ORI 40 mg/kg, G1 1200 mg/kg (Morus:Yerba Mate 1:5)
[17] = DIO mice, oral, week 4, ORI 40 mg/kg, G1 700 mg/kg (Morus:Rosemary 2:5)
[18] = DIO mice, oral, week 4, ORI 40 mg/kg, G1 1200 mg/kg (Morus:Yerba Mate 1:5)
[19] = DIO mice, oral, week 5, ORI 40 mg/kg, G1 700 mg/kg (Morus:Rosemary 2:5)
[20] = DIO mice, oral, week 5, ORI 40 mg/kg, G1 1200 mg/kg (Morus:Yerba Mate 1:5)
[21] = DIO mice, oral, week 6, ORI 40 mg/kg, G1 700 mg/kg (Morus:Rosemary 2:5)
[22] = DIO mice, oral, week 6, ORI 40 mg/kg, G1 1200 mg/kg (Morus:Yerba Mate 1:5)
[23] = DIO mice, oral, week 7, ORI 40 mg/kg, G1 700 mg/kg (Morus:Rosemary 2:5)
[24] = DIO mice, oral, week 7, ORI 40 mg/kg, G1 1200 mg/kg (Morus:Yerba Mate 1:5)
[25] = DIO mice, seven weeks, ORI 40 mg/kg, G1 300 mg/kg (Morus:Magnolia 2:1)
[26] = DIO mice, seven weeks, ORI 40 mg/kg, G1 1200 mg/kg (Morus:Yerba Mate 1:5)
[27] = DIO mice, week 1, G1-G4 1000 mg/kg oral gavage two times per day
[28] = DIO mice, week 2, G1-G4 1000 mg/kg oral gavage two times per day
[29] = DIO mice, week 3, G1-G4 1000 mg/kg oral gavage two times per day
[30] = DIO mice, week 4, G1-G4 1000 mg/kg oral gavage two times per day
[31] = DIO mice, week 5, G1-G4 1000 mg/kg oral gavage two times per day
[32] = DIO mice, week 6, G1-G4 1000 mg/kg oral gavage two times per day
[33] = DIO mice, week 7, G1-G4 1000 mg/kg oral gavage two times per day
[34] = DIO mice, G1-G4 1000 mg/kg oral gavage two times per day

CCCCCCCCCCC[C@@H](C[C@@H]1OC(=O)[C@H]1CCCCCC)OC(=O)[C@H](CC(C)C)NC=O [ORI, orlistat]
ALT [1]: 40.42 U/L
AST [1]: 67.96 U/L
HDL-C [1]: 78.52 mg/dL
LDL-C [1]: 6.78 mg/dL
T-chol [1]: 184.40 mg/dL
TG [1]: 143.60 mg/dL
LDL-C [2]: 7.42 mg/dL
T-chol [2]: 182.40 mg/dL
TG [2]: 41.20 mg/dL
Hepatocellular ballooning (0-2) [3]: 0.60
Lobular Inflammation (0-3) [3]: 1.60
Steatosis (0-3) [3]: 1.20
NASH (sum) (DIO mice liver pathology, sum of scores, SIB 10 mg/kg, ORI 40 mg/kg, Mutamba extract 32 (G1) 1000 mg/kg, mean): 3.40
Food Intake [4]: 3.195 g/day
Weight Gain [4]: 0.000 g/day
Food Efficiency Ratio (FER) (DIO mice, ORI 40 mg/kg, seven week study, body weight gain/food intake): 0.000
Weight Gain (DIO mice, ORI 40 mg/kg, week 1, mean): −5.43
Weight Gain (DIO mice, ORI 40 mg/kg, week 2, mean): −6.69
Weight Gain (DIO mice, ORI 40 mg/kg, week 3, mean): −5.27
Weight Gain (DIO mice, ORI 40 mg/kg, week 4, mean): −3.47
Weight Gain (DIO mice, ORI 40 mg/kg, week 5, mean): −2.34
Weight Gain (DIO mice, ORI 40 mg/kg, week 6, mean): −1.08
Weight Gain (DIO mice, ORI 40 mg/kg, week 7, mean): 0.02
ALP [5]: 186.51 U/L
ALT [5]: 35.12 U/L
AST [5]: 62.03 U/L
Glu [5]: 267.22 mg/dL
HDL-C [5]: 74.22 mg/dL
LDL-C [5]: 7.56 mg/dL
T-chol [5]: 175.44 mg/dL
TG [5]: 46.78 mg/dL
TP [5]: 4.89 g/dL
ALT [6]: 21.83 U/L
AST [6]: 65.65 U/L
TG [6]: 27.83 mg/dL
F-Glu (fasting glucose) [7]: 225.50 mg/dL
LDL-C [7]: 3.30 mg/dL
T-Chol (total cholesterol) [7]: 134.00 mg/dL
Triglyceride [7]: 62.50 mg/dL
F-Glu (fasting glucose) [8]: 225.50 mg/dL
LDL-C [8]: 3.30 mg/dL
T-Chol (total cholesterol) [8]: 134.00 mg/dL
Triglyceride [8]: 62.50 mg/dL
Hepatocellular ballooning (0-2) [9]: 0.67
Lobular Inflammation (0-3) [9]: 1.33
NASH (sum) [9]: 2.67
Steatosis (0-3) [9]: 0.67
Perirenal Fat (DIO mice, oral, seven weeks, combination 700 mg/kg, ORI 40 mg/kg, group mean): 0.43
Food Efficiency Ratio (FER) (DIO mice, oral, seven weeks, combination (2:5) 700 mg/kg, ORI 40 mg/kg, FER = body weight gain/food intake): 0.005
Body Weight Gain [10]: 0.012 g/day
Food Intake [10]: 2.711 g/day
Weight (total body weight) (DIO mice, oral, week 0, ORI 40 mg/kg, G1 700 mg/kg (Morus:Rosemary 2:5)): 42.39
Total Weight (DIO mice, oral, week 0, ORI 40 mg/kg, G1 1200 mg/kg (Morus:Yerba Mate 1:5)): 38.40
Body Weight Gain (DIO mice, oral, week 1, ORI 40 mg/kg, G1 300 mg/kg (Morus:Magnolia 2:1)): −3.20
Body Weight Gain [11]: −3.56
Weight (total body weight) [11]: 38.83
Weight Gain [12]: −3.20
Total Weight [12]: 35.20
Body Weight Gain (DIO mice, oral, week 2, ORI 40 mg/kg, G1 300 mg/kg (Morus:Magnolia 2:1)): −4.88
Body Weight Gain [13]: −5.75
Weight (total body weight) [13]: 36.64
Weight Gain [14]: −4.88
Total Weight [14]: 33.58
Body Weight Gain (DIO mice, oral, week 3, ORI 40 mg/kg, G1 300 mg/kg (Morus:Magnolia 2:1)): −3.34
Body Weight Gain [15]: −5.91
Weight (total body weight) [15]: 36.48
Weight Gain [16]: −3.34
Total Weight [16]: 35.12
Body Weight Gain (DIO mice, oral, week 4, ORI 40 mg/kg, G1 300 mg/kg (Morus:Magnolia 2:1)): −2.61
Body Weight Gain [17]: −3.82
Weight (total body weight) [17]: 38.57
Weight Gain [18]: −2.61
Total Weight [18]: 35.84
Body Weight Gain (DIO mice, oral, week 5, ORI 40 mg/kg, G1 300 mg/kg (Morus:Magnolia 2:1)): −2.04
Body Weight Gain [19]: −2.33
Weight (total body weight) [19]: 40.07
Weight Gain [20]: −2.04
Total Weight [20]: 36.41
Body Weight Gain (DIO mice, oral, week 6, ORI 40 mg/kg, G1 300 mg/kg (Morus:Magnolia 2:1)): −1.65
Body Weight Gain [21]: −1.44
Weight (total body weight) [21]: 40.95
Weight Gain [22]: −1.65
Total Weight [22]: 36.80
Body Weight Gain (DIO mice, oral, week 7, ORI 40 mg/kg, G1 300 mg/kg (Morus:Magnolia 2:1)): −0.07
Body Weight Gain [23]: 0.60
Weight (total body weight) [23]: 42.99
Weight Gain [24]: −0.07
Total Weight [24]: 38.38
Absolute Liver Weight [25]: 1.05 g
Body Weight Gain [25]: -0.002 g/day
Epididymal Fat weight [25]: 1.92
Food Intake [25]: 3.961 g/day
Perirenal Fat weight [25]: 0.21
Retroperitoneal Fat weight [25]: 0.55
Total Fat (sum of the three fat deposits) [25]: 2.68
Food Efficiency Ratio (FER) (DIO mice, seven weeks, ORI 40 mg/kg, G1 300 mg/kg, FER = body weight gain (g/day)/food intake (g/day)): 0.000
Food Intake [26]: 3.961 g/day
Retroperitoneal Fat [26]: 0.55
Weight Gain [26]: -0.002 g/day
Food Efficiency Ratio (FER) (DIO mice, seven weeks, ORI 40 mg/kg, G1 1200 mg/kg, FER = body weight gain (g/day)/food intake (g/day)): 0.000
Animal Body Weight, week 0 (DIO mice, week 0 (baseline), G1-G4 1000 mg/kg oral gavage two times per day): 41.44 gram
Animal Body Weight, week 1 [27]: 40.17 gram
Weight Gain, week 1 [27]: −3.97 gram
Animal Body Weight, week 2 [28]: 36.20 gram
Weight Gain, week 2 [28]: −5.37 gram
Animal Body Weight, week 3 [29]: 34.80 gram
Weight Gain, week 3 [29]: −4.08 gram
Animal Body Weight, week 4 [30]: 36.09 gram
Weight Gain, week 4 [30]: −3.11 gram
Animal Body Weight, week 5 [31]: 37.06 gram
Weight Gain, week 5 [31]: −1.26 gram
Animal Body Weight, week 6 [32]: 38.91 gram
Weight Gain, week 6 [32]: 0.05 gram
Animal Body Weight, week 7 [33]: 40.22 gram
Weight Gain, week 7 [33]: 0.72 gram
Weight Gain 2-week (DIO mice, 2-week, Compositions 1, 2 1300 mg/kg/day, 3, 9 1700 mg/kg/day, orlistat 40 mg/kg 2 times/day, sibutramine 10 mg/kg 1 time/day): −5.07
Average Feed Intake 2-week (DIO mice, 2-week, doses as in Example 76): 2.79
Food Efficiency Ratio (FER) 2 weeks (DIO mice, 2 weeks, Mean, Weight Gain (g/day)/Feed Intake (g/day)): −0.223
Weight Gain 7-week (DIO mice, 7-week, Compositions 1, 2 1300 mg/kg/day, 3, 9 1700 mg/kg/day, orlistat 40 mg/kg 2 times/day, sibutramine 10 mg/kg 1 time/day): 0.56
Average Feed Intake 7-week (DIO mice, 7-week, doses as in Example 76): 3.09
Food Efficiency Ratio (FER) 7 weeks (DIO mice, 7 weeks, Mean, Weight Gain (g/day)/Feed Intake (g/day)): 0.005
FER (Food efficiency ratio) (DIO mice, Body weight gain (g/day)/Food intake (g/day), G1 = 800 mg/kg orally twice a day): −0.001
FER (Food efficiency ratio) (DIO mice, Body weight gain (g/day)/Food intake (g/day), G1 = 1,100 mg/kg orally twice a day): −0.001
FER (Food efficiency ratio) (DIO mice, Body weight gain (g/day)/Food intake (g/day), G1 = 1,200 mg/kg orally twice a day): −0.001
FER (Food efficiency ratio) (DIO mice, FER = Weight Gain (g/day)/Food intake (g/day)): 0.006
Food Efficiency Ratio (FER) (DIO mice, FER = body weight gain (g/day)/food intake (g/day), SIB 10 mg/kg, ORI 40 mg/kg, Mutamba extract 32 (G1) 1000 mg/kg, mean): 0.013
Food Efficiency Ratio (FER) (DIO mice, FER = body weight gain (g/day)/food intake (g/day), SIB 10 mg/kg, ORI 40 mg/kg, Mutamba extract 33-2 G1 1000 mg/kg, mean): 0.034
Absolute Organ Weight, PeriRenal Fat [34]: 0.388 g
Absolute Organ Weight, Retroperitoneal Fat [34]: 0.567 g
